In patent publication US5258492A, “LHRH analogues with cytotoxic moieties at the sixth position” (The Administrators of the Tulane Educational Fund, priority 1991, dated 1993):

Experiments:
[1] = target: T1, membrane receptors of pituitary of male rats (Rattus norvegicus, UniProt P30969); assay: Binding affinity for membrane receptors of rat pituitary using 125I-labeled [D-Trp6]LHRH
T1 construct: from tissue; host or cells: pituitary of male rats (membranes)
T1 sequence (P30969 1-327): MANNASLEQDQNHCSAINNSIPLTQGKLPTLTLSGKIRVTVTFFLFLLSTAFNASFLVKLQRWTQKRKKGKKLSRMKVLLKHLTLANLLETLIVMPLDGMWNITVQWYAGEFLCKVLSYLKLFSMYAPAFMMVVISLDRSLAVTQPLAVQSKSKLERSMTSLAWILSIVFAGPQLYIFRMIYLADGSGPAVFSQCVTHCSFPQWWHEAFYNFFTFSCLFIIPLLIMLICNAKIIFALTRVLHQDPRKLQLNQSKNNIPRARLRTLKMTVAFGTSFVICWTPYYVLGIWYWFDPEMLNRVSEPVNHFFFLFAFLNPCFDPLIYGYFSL
Protocol: (§1) This is determined by using labelled LHRH and [D-Trp^6 ]LHRH. The assay is carried out similarly to that described by T. Kadar et al., Proc. Natl. Acad. Sci. USA, 85, 890-894 (1988).
(§2) Table 2 presents the antiovulatory activity of the claimed compounds having LHRH-inhibiting properties. The inhibitory action was determined in vivo, in 4-day cycling rats as described [A. Corbin and C. W. Beattie, Endocr. Res. Commun., 2, 1-23 (1975)]. Affinities of the claimed compounds to membrane receptors of rat pituitary and human breast cancer cells are also given in Tables 1 and 2 as determined by using [^125 I,D-Trp^6 ]LHRH.
(§3) **Affinity constants of the peptides for the first receptor class (i.e.
(§4) for high affinity binding sites) of pituitary of male rats and human
(§5) breast cancer cells, respectively, as determined by using ^125
(§6) Ilabeled [DTrp^6 ]LHRH.
(§7) breast cancer cells, respectively, were determined by using ^125

[2] = target: T2, membrane receptors of human breast cancer cells (Homo sapiens, UniProt P30968); assay: Binding affinity for membrane receptors of human breast cancer cells using 125I-labeled [D-Trp6]LHRH
T2 construct: endogenous in cells; host or cells: human breast cancer cells (membranes)
T2 sequence (P30968 1-328): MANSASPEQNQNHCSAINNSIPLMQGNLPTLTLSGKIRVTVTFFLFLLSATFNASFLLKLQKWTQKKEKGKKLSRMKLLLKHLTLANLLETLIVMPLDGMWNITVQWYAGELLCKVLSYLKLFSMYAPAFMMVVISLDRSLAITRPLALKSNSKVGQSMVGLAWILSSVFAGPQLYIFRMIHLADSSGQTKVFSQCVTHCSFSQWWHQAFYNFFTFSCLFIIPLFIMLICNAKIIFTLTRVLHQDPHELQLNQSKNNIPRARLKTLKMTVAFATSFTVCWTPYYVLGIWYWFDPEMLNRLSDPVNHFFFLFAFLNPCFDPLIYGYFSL
Protocol: as §1, §2, §3, §4, §5, §6, §7

4-day cycling rats = assay: In vivo antiovulatory activity in 4-day cycling rats; design: species or system rat
Protocol: This activity of the peptides is determined in 4-day-cycling rats as described [A. Corbin and C. W. Beattie, Endocr. Res. Commun., 2, 1-23 (1975)].
as §2
*LHRH-inhibiting potencies were assayed in 4day cyclic rats.

[3] = tested on: dispersed rat pituitary cell superfusion system; assay: LH release in dispersed rat pituitary cell superfusion system (agonistic activity); type: cell-based; conditions: Table 1; peptide infused 3 min, LH released compared to 3 nM LHRH
Protocol: *LH responses to the analogues were determined in dispersed rat pituitary
cell superfusion system.

[4] = Table 2, high affinity binding sites
[5] = Table 1, high affinity binding sites

Row | Substance | Binding affinity, Ka1, for membrane receptors of pituitary [1, 4] [nM⁻¹] | Binding affinity, Ka1, for membrane receptors of cancer cells [2, 4] [nM⁻¹] | Binding affinity, Ka1, for membrane receptors of pituitary [1, 5] [nM⁻¹] | Binding affinity, Ka1, for membrane receptors of cancer cells [2, 5] [nM⁻¹] | Hormonal activity, LH responses rel. to LHRH (= 1) [3] | other results
1 | Ac-D-Nal(2)-D-Phe(4 Cl)-D-Trp-Ser-Arg-D-Lys[(Cu^++)(POL)2 (DL-A2 pr)]-Leu-Arg-Pro-D-Ala-NH2 [Example XXIII] | 7.622 | 3.408 | – | – | – | % Blockade of ovulation (4-day cycling rats; Dose 10 μg/rat): 40%
2 | Ac-D-Nal(2)-D-Phe(4Cl)-D-Pal(3)-Ser-Arg-D-Lys[(Cu^++)(POL)2 (DL-A2 pr)]-Leu-Arg-Pro-D-Ala-NH2 [XXIV] | 5.483 | 2.628 | – | – | – | % Blockade of ovulation (4-day cycling rats; Dose 3 μg/rat): 50%
3 | Ac-D-Nal(2)-D-Phe(4Cl)-D-Pal(3)-Ser-Arg-D-Lys[(Cu^++)(POLP)2 (DL-A2 pr)]-Leu-Arg-Pro-D-Ala-NH2 [Example XX] | 5.250 | 2.436 | – | – | – | % Blockade of ovulation (4-day cycling rats; Dose 3 μg/rat): 80%
4 | Ac-D-Nal(2)-D-Phe(4Cl)-D-Pal(3)-Ser-Arg-D-Lys[(Cu^++)(SAL)2 (A2 bu-Eac)]-Leu-Arg-Pro-D-Ala-NH2 [XXVIII] | – | 0.192 | – | – | – | –
5 | Ac-D-Nal(2)-D-Phe(4Cl)-D-Pal(3)-Ser-Arg-D-Lys[(Ni^++)(SAL)2 (DL-A2 pr)]-Leu-Arg-Pro-D-Ala-NH2 [XIII] | 1.821 | 0.878 | – | – | – | % Blockade of ovulation (4-day cycling rats; rat, in vivo): 100
6 | pGlu-His-Trp-Ser-Tyr-D-Lys[(Cu^++)(CISAL)2 (DL-A2 pr)]-Leu-Arg-Pro-Gly-NH2 [Example IX] | – | – | 8.625 | 3.995 | 10 | –

Second part, led by results:

Row | Binding affinity, Ka1, for membrane receptors of pituitary [1, 4] [nM⁻¹] | Binding affinity, Ka1, for membrane receptors of cancer cells [2, 4] [nM⁻¹] | Binding affinity, Ka1, for membrane receptors of pituitary [1, 5] [nM⁻¹] | Binding affinity, Ka1, for membrane receptors of cancer cells [2, 5] [nM⁻¹] | Substance | Hormonal activity, LH responses rel. to LHRH (= 1) [3] | other results
7 | – | 2.152 | – | – | Ac-D-Nal(2)-D-Phe(4Cl)-D-Pal(3)-Ser-Arg-D-Lys[(PtCl2)-A2 bu-Eac)]-Leu-Arg-Pro-D-Ala-NH2 [XXVII] | – | –
8 | – | – | 3.051 | 1.348 | [D-Lys[(Cu^++)(SAL)2 (L-A2 pr)]^6 ]LHRH [VIA] | 12 | –
9 | – | – | 6.457 | 3.334 | [D-Lys[(Ni^++)(SAL)2(D-A2 pr)]^6 ]LHRH [VIIIB] | 10 | –
10 | – | – | 9.710 | 5.234 | [D-Lys[(Ni^++)(SAL)2(L-A2 pr)]^6 ]LHRH [VIIIA] | 12 | –
